Experimental data published in publication PMC9977294, “A parasitic fungus employs mutated eIF4A to survive on rocaglate-synthesizing Aglaia plants” (eLife, 2023).
Several values for one entry are separate records, joined by “and”; a condition that tells them apart may be missing. Equal entries are not always repeated.

Assays:
[1] = target: T1, H. sapiens eIF4A1 Phe163Gly (Homo sapiens, UniProt P60842, F163G); assay: Fluorescence polarization assay, FAM-labeled [AG]10 RNA and recombinant eIF4A; format: binding
T1 construct: His tag (N); made in house; host or cells: E. coli BL21 Star (DE3)
T1 sequence (P60842 whole entry F163G): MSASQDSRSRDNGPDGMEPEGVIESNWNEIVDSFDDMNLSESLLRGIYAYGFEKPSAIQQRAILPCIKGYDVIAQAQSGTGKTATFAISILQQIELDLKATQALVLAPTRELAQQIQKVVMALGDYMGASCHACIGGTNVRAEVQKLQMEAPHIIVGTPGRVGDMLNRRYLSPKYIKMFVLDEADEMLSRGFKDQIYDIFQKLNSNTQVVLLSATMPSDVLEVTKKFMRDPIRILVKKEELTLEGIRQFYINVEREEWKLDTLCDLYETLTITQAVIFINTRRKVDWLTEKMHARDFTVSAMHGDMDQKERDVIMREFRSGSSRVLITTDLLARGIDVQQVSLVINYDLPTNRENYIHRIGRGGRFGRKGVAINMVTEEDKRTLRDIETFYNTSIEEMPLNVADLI
Protocol: (§1) The fluorescence polarization assay was performed as previously described ([Chen et al., 2021]). […] After incubation at room temperature for 30 min, the mixture was transferred to a black 384-well microplate (Corning), and the fluorescence polarization was measured by an Infinite F-200 PRO (Tecan). Under ADP + Pi conditions, 1 mM ADP (Fujifilm Wako Chemicals) and 1 mM Na2HPO4 were used as substitutes for AMP-PNP. The data were fitted to the Hill equation to calculate Kd values and visualized by Igor Pro v8.01 (WaveMetrics).

[2] = target: T2, H. sapiens eIF4A1 WT Phe163 (Homo sapiens, UniProt P60842); assay: as above; format: binding; conditions: RocA 50 µM
T2 construct: His tag (N); made in house; host or cells: E. coli BL21 Star (DE3)
T2 sequence (P60842 whole entry): as the sequence (P60842 whole entry F163G) above, with G163F counted along it
Protocol: as §1

[3] = test system: Ophiocordyceps sp. BRM1 eIF4A Gly172His; assay: In vitro translation in RRL with complex-preformed mRNAs; format: biochemical; conditions: reporter mRNA with polypurine motifs preincubated with eIF4A and 9.1 µM RocA, free RocA removed; Figure 3B
Protocol: (§2) The DNA fragments PCR-amplified from psiCHECK2−7×AGAGAG motifs or psiCHECK2-CAA repeats ([Iwasaki et al., 2016]) were used as a template for in vitro transcription with a T7-Scribe Standard RNA IVT Kit ([…]). RNA was capped and poly(A) tailed with a ScriptCap m^7G Capping System, a ScriptCap 2′-O-Methyltransferase Kit, and an A-Plus Poly(A) Polymerase Tailing Kit ([…]).
(§3) Then, 4 µl of complex-preformed mRNA was incubated with 50% RRL (Promega) in a 10 µl reaction volume for 1 hr at 30°C, according to the manufacturer’s instructions. The fluorescence signal was detected using the Renilla-Glo Luciferase Assay System (Promega) and measured with the GloMax Navigator System (Promega). In the control experiments, instead of recombinant eIF4A proteins, storage buffer was used. Moreover, recombinant eIF4A proteins were added to the G-25 flowthrough solution in place of the storage buffer.

[4] = test system: Ophiocordyceps sp. BRM1 eIF4A WT; assay: as above; format: biochemical; conditions: reporter mRNA with polypurine motifs preincubated with eIF4A and 9.1 µM RocA, free RocA removed; Figure 3B
Protocol: as §2, §3

[5] = [AG]10, ADP + Pi, RocA 50 µM, protein 0.01 μM
[6] = [AG]10, ADP + Pi, RocA 50 µM, protein 0.05 μM
[7] = [AG]10, ADP + Pi, RocA 50 µM, protein 0.075 μM
[8] = [AG]10, ADP + Pi, RocA 50 µM, protein 0.1 μM
[9] = [AG]10, ADP + Pi, RocA 50 µM, protein 0.5 μM
[10] = [AG]10, ADP + Pi, RocA 50 µM, protein 0.75 μM
[11] = [AG]10, ADP + Pi, RocA 50 µM, protein 1 μM
[12] = [AG]10, ADP + Pi, RocA 50 µM, protein 5 μM
[13] = [AG]10, ADP + Pi, RocA 50 µM, protein 7.5 μM
[14] = [AG]10, ADP + Pi, RocA 50 µM, protein 10 μM
[15] = [AG]10, ADP + Pi, RocA 50 µM, protein 25 μM
[16] = [AG]10, ADP + Pi, RocA 50 µM, protein 50 μM
[17] = [AG]10 RNA, AMP-PNP, RocA, protein concentration 0.01 μM
[18] = [AG]10 RNA, AMP-PNP, RocA, protein concentration 0.05 μM
[19] = [AG]10 RNA, AMP-PNP, RocA, protein concentration 0.075 μM
[20] = [AG]10 RNA, AMP-PNP, RocA, protein concentration 0.1 μM
[21] = [AG]10 RNA, AMP-PNP, RocA, protein concentration 0.5 μM
[22] = [AG]10 RNA, AMP-PNP, RocA, protein concentration 0.75 μM
[23] = [AG]10 RNA, AMP-PNP, RocA, protein concentration 1 μM
[24] = [AG]10 RNA, AMP-PNP, RocA, protein concentration 5 μM
[25] = [AG]10 RNA, AMP-PNP, RocA, protein concentration 7.5 μM
[26] = [AG]10 RNA, AMP-PNP, RocA, protein concentration 10 μM
[27] = [AG]10 RNA, AMP-PNP, RocA, protein concentration 25 μM
[28] = [AG]10 RNA, AMP-PNP, RocA, protein concentration 50 μM

COc1ccc([C@@]23Oc4cc(OC)cc(OC)c4[C@]2(O)[C@H](O)[C@H](C(=O)N(C)C)[C@H]3c2ccccc2)cc1 [RocA, rocaglamide A]
fluorescence polarization, Mean [1, 5]: 0.04918
fluorescence polarization, replicates [1, 5]: 0.1421 and 0.05191 and -0.04645
fluorescence polarization, Mean [1, 6]: 0.02732
fluorescence polarization, replicates [1, 6]: 0.2322 and -0.03005 and -0.1202
fluorescence polarization, Mean [1, 7]: -0.02459
fluorescence polarization, replicates [1, 7]: 0.06011 and -0.02186 and -0.112
fluorescence polarization, Mean [1, 8]: -0.01913
fluorescence polarization, replicates [1, 8]: -0.03005 and -0.01366 (2×)
fluorescence polarization, Mean [1, 9]: -0.02459
fluorescence polarization, replicates [1, 9]: 0.0765 and 0.04372 and -0.194
fluorescence polarization, Mean [1, 10]: -0.02459
fluorescence polarization, replicates [1, 10]: 0.1831 and -0.05465 and -0.2022
fluorescence polarization, Mean [1, 11]: -0.01913
fluorescence polarization, replicates [1, 11]: 0.1093 and -0.06284 and -0.1038
fluorescence polarization, Mean [1, 12]: 0.224
fluorescence polarization, replicates [1, 12]: 0.3634 and 0.224 and 0.0847
fluorescence polarization, Mean [1, 13]: 0.1721
fluorescence polarization, replicates [1, 13]: 0.3798 and 0.03552 and 0.1011
fluorescence polarization, Mean [1, 14]: 0.276
fluorescence polarization, replicates [1, 14]: 0.3962 and 0.1585 and 0.2732
fluorescence polarization, Mean [1, 15]: 0.5137
fluorescence polarization, replicates [1, 15]: 0.7404 and 0.5273 and 0.2732
fluorescence polarization, Mean [1, 16]: 0.582
fluorescence polarization, replicates [1, 16]: 0.7568 and 0.5437 and 0.4454
Fluorescence polarization, Replicate 1-3 [1, 17]: 0.04918 and -0.08197 and -0.1475
fluorescence polarization, Mean [1, 17]: -0.06011
Fluorescence polarization, Replicate 1-3 [1, 18]: 0.1311 and -0.09016 and -0.09836
fluorescence polarization, Mean [1, 18]: -0.01913
Fluorescence polarization, Replicate 1-3 [1, 19]: -0.04098 and -0.1393 and -0.09836
fluorescence polarization, Mean [1, 19]: -0.0929
Fluorescence polarization, Replicate 1-3 [1, 20]: 0.07377 and 0.02459 and -0.06557
fluorescence polarization, Mean [1, 20]: 0.01093
Fluorescence polarization, Replicate 1-3 [1, 21]: 0.5984 and 0.4918 and 0.4016
fluorescence polarization, Mean [1, 21]: 0.4973
Fluorescence polarization, Replicate 1-3 [1, 22]: 0.4508 and 0.2049 and 0.1148
fluorescence polarization, Mean [1, 22]: 0.2568
Fluorescence polarization, Replicate 1-3 [1, 23]: 0.5082 and 0.3689 (2×)
fluorescence polarization, Mean [1, 23]: 0.4153
Fluorescence polarization, Replicate 1-3 [1, 24]: 0.7131 and 0.7705 and 0.7541
fluorescence polarization, Mean [1, 24]: 0.7459
Fluorescence polarization, Replicate 1-3 [1, 25]: 0.6393 and 0.6721 and 0.5902
fluorescence polarization, Mean [1, 25]: 0.6339
Fluorescence polarization, Replicate 1-3 [1, 26]: 0.7951 and 0.7459 and 0.7705
fluorescence polarization, Mean [1, 26]: 0.7705
Fluorescence polarization, Replicate 1-3 [1, 27]: 0.7623 and 0.7213 and 0.6639
fluorescence polarization, Mean [1, 27]: 0.7158
Fluorescence polarization, Replicate 1-3 [1, 28]: 0.9016 and 0.7623 and 0.7787
fluorescence polarization, Mean [1, 28]: 0.8142
fluorescence polarization, Mean ([2]; ADP + Pi, protein 0.01 μM): 0.08197
fluorescence polarization, Mean ([2]; ADP + Pi, protein 0.05 μM): 0.09836
fluorescence polarization, Mean ([2]; ADP + Pi, protein 0.075 μM): 0.06831
fluorescence polarization, Mean ([2]; ADP + Pi, protein 0.1 μM): 0.1776
fluorescence polarization, Mean ([2]; ADP + Pi, protein 0.5 μM): 0.5956
fluorescence polarization, Mean ([2]; ADP + Pi, protein 0.75 μM): 0.735
fluorescence polarization, Mean ([2]; ADP + Pi, protein 1 μM): 0.6831
fluorescence polarization, Mean ([2]; ADP + Pi, protein 5 μM): 0.9481
fluorescence polarization, Mean ([2]; ADP + Pi, protein 7.5 μM): 0.8825
fluorescence polarization, Mean ([2]; ADP + Pi, protein 10 μM): 0.9699
fluorescence polarization, Mean ([2]; ADP + Pi, protein 25 μM): 1.044
fluorescence polarization, Mean ([2]; ADP + Pi, protein 50 μM): 1.0929
fluorescence polarization, Mean ([2]; AMP-PNP, protein 0.01 μM): 0.2213
fluorescence polarization, Mean ([2]; AMP-PNP, protein 0.05 μM): 0.7268
fluorescence polarization, Mean ([2]; AMP-PNP, protein 0.075 μM): 0.4973
fluorescence polarization, Mean ([2]; AMP-PNP, protein 0.1 μM): 0.765
fluorescence polarization, Mean ([2]; AMP-PNP, protein 0.5 μM): 1.016
fluorescence polarization, Mean ([2]; AMP-PNP, protein 0.75 μM): 1.0082
fluorescence polarization, Mean ([2]; AMP-PNP, protein 1 μM): 1.049
fluorescence polarization, Mean ([2]; AMP-PNP, protein 5 μM): 1.046
fluorescence polarization, Mean ([2]; AMP-PNP, protein 7.5 μM): 1.123
fluorescence polarization, Mean ([2]; AMP-PNP, protein 10 μM): 1.156
fluorescence polarization, Mean ([2]; AMP-PNP, protein 25 μM): 1.142
fluorescence polarization, Mean ([2]; AMP-PNP, protein 50 μM): 1.15
translation of complex-preformed mRNA in RRL [3]: could act as a translation repressor
translation of complex-preformed mRNA in RRL [4]: could not alter translation
